Test results reported in patent US5240717A, “Process for mannose and mannose isomerase production using mannose isomerase-producing pseudomonas” (Amano Pharmaceutical Co., Ltd., priority 1990, dated 1993).

System: mannose isomerase
Experiment: mannose isomerase activity of the enzyme of the invention (optimum conditions, substrates, inhibitors)
Assay type: biochemical, Pseudomonas sp. AM-9582
Conditions: not given
Description: It is active in a pH range from about 6 to 11, but the optimum pH is about 8 (under the reaction condition of 50° C. for 30 minutes, in 0.1M phosphate buffer).
It is active up to about 70° C., but the optimum temperature is about 55° C. under the reaction conditions of 0.1M mannose, 0.05M Tris buffer (pH 7.0) for 30 minutes.
(§1) Into 0.5 ml of a 0.1M phosphate buffer (pH 7.0) containing 0.2M mannose dissolved therein is added a suitable amount of the enzyme, the total volume is made up with water to 1.0 ml, and the reaction mixture is incubated at 50° C. The amount of fructose formed is determined by the cysteine-carbazole method. The amount of the enzyme forming 1 micromole of fructose per one minute under this condition is defined as one unit.

Structure (SMILES)	Substrate specificity (activity of the enzyme on the sugar)
O=C[C@@H](O)[C@@H](O)[C@H](O)[C@H](O)CO [D-mannose]	active
O=C[C@H](O)[C@@H](O)[C@H](O)[C@H](O)CO [D-glucose]	not substantially

Second part, the molecule after the results:

Substrate specificity (activity of the enzyme on the sugar)	Structure (SMILES)
not substantially	O=C[C@H](O)[C@@H](O)[C@@H](O)CO [L-arabinose]
not substantially	C[C@H](O)[C@@H](O)[C@@H](O)[C@H](O)C=O [L-fucose]
active	O=C[C@@H](O)[C@@H](O)[C@H](O)CO [D-lyxose]
not substantially	O=C[C@@H](O)[C@H](O)[C@@H](O)CO [L-xylose]
not substantially	O=C[C@@H](O)[C@H](O)[C@H](O)CO [D-arabinose]
not substantially	O=C[C@H](O)[C@@H](O)[C@H](O)CO [D-xylose]
not substantially	C[C@@H](O)[C@@H](O)[C@H](O)[C@H](O)C=O [D-rhamnose]
not substantially	C[C@@H](O)[C@H](O)[C@H](O)[C@@H](O)C=O [D-fucose]
not substantially	C[C@H](O)[C@H](O)[C@@H](O)[C@@H](O)C=O [L-rhamnose]
not substantially	O=C[C@H](O)[C@H](O)[C@H](O)CO [D-ribose]

Same assay, conditions: 5×10^-3 M of inhibitor

Structure (SMILES)	Inhibition of the enzyme
[Cl][Hg][Cl] [HgCl2]	strongly inhibited
O=C(O)c1cc[c]([Hg][Cl])cc1 [p-chloromercury benzoate]	strongly inhibited
[Cl][Al]([Cl])[Cl] [AlCl3]	strongly inhibited
O=[N+]([O-])[O-].[Ag+] [AgNO3]	strongly inhibited
O=S(=O)([O-])[O-].[Fe+2] [FeSO4]	strongly inhibited

System: mannose isomerase
Experiment: thermal and pH stability of the enzyme of the invention (residual activity)
Assay type: physicochemical, Pseudomonas sp. AM-9582
Conditions: presence of calcium ions
Description: The residual activities after heating treatment at 60° C. for 5, 10, 15, 20, 30 minutes in 0.05M Tris buffer (pH 7.0) are, about 90%, 68%, 52%, 42%, 30% respectively.
The residual activity was measured after the enzyme was incubated in 0.1M buffer (acetate or phosphate buffer) of various pH at room temperature (25° C.) for 3 hours. As the result, it is stable in the pH range 6 to 9.
as §1

Structure (SMILES)	Effect on thermal stability of the enzyme
[Ca+2] [calcium ions]	increases the thermal stability

System: Salmonella
Experiment: not given
Conditions: cited from earlier work

Structure (SMILES)	Growth of Salmonella
O=C[C@@H](O)[C@@H](O)[C@H](O)[C@H](O)CO [D-mannose]	inhibits the growth
